Measurements: patent US6852686B2, “Methods for ameliorating icthyosiform skin diseases” (The United States of America as represented by the …, priority 1999, dated 2005)

Key:
TGase 1 [1] = target: T1, TGase 1 (Homo sapiens, UniProt P22735); experiment: Lipid Z esterification of involucrin by TGase 1 on SLV; assay type: biochemical
T1 construct: Recombinant full-length human TGase 1 and TGase 3 enzymes were expressed in Sf9 cells by the BaculoGold system; made in house; host or cells: Sf9 insect cells, BaculoGold baculovirus system, pVL1392 vector
T1 sequence (P22735 1-817): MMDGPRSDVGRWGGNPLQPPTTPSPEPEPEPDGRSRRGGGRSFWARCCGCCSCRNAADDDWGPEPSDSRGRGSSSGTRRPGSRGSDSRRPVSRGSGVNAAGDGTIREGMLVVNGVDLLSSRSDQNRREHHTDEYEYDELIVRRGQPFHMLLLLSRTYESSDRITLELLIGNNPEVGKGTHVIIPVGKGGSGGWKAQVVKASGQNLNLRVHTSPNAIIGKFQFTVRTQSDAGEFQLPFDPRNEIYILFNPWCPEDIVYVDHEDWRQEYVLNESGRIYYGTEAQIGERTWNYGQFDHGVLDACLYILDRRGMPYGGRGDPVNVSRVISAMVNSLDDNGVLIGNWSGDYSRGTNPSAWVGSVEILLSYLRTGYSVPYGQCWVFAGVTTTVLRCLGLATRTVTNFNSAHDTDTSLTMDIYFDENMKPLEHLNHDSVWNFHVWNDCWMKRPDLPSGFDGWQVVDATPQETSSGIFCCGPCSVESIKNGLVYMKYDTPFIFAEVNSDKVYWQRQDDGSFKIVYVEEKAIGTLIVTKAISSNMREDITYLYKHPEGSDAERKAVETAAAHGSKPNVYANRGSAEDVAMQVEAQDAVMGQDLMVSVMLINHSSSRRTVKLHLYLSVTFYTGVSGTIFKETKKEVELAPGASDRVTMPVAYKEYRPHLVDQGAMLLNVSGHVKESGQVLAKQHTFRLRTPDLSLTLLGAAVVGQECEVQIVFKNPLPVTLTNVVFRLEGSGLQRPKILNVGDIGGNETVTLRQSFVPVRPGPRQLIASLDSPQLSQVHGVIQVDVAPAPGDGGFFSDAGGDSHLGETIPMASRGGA
Description: A mixture of 54 mol % dimyristoyl-phosphatidylcholine, 15 mol % dipalmitoyl-phosphatidylserine, 30 mol % cholesterol (all from Sigma, St. Louis, Mo.) and 1 mol % lipid Z was made in chloroform: methanol (9:1). This solution was dried down, taken up in aqueous buffer and dispersed by sonication as before (Nemes et al., J. Biol. Chem., 274: in press (1999)). The SLV suspension was equipped with TGase 1 enzyme by incubation at 37° C. for 15 min prior to adding substrates.
The reactions were stopped by the addition of EDTA to 10 mM.
Following reaction, 0.1 ml 20% SDS in water was added to the samples and the mixture was vortexed. This mixture was precipitated and washed three times with acetone-triethylamine-acetic acid (90:5:5) to remove the SDS and the unbound lipids (Konigsberg, W. H. and L. Henderson, Meth. Enzymol., 91: 254-259 (1983), herein expressly incorporated by reference in its entirety). After further washing with acetone the pellet was dried under vacuum and redissolved in 50 mM Tris-HCl (pH 7.5). Resolubilized protein was digested for 16 h with 2 mol % modified trypsin (Boehringer Mannheim). Peptides were resolved on a 250×2 mm PrimesphereC4 HPLC column (Phenomenex) and separated using a gradient elution from 75% buffer A (0.1% TFA in water) to 75% buffer B (50% 2-propanol in acetonitrile) in 40 min. Under these conditions, lipo-peptides were retarded but free peptides elute with the solvent front (Marekov, L. N. and P. M. Steinert, J. Biol. Chem., 273: 17763-17770 (1998), herein expressly incorporated by reference in its entirety).
Amino acid analysis of hydrolyzed samples (5.7 N HCl at 110° C. for 24 h in vacuo) was used to routinely measure amounts of lipo-peptides. Aliquots of isolated lipo-peptide peaks were attached to a solid support for sequencing (Marekov, L. N. and P. M. Steinert, J. Biol. Chem., 273: 17763-17770 (1998), herein expressly incorporated by reference in its entirety). Saponification of lipo-peptides was done with 1 N KOH in 80% methanol for 2 h at 37° C., after which the solution was acidified, dried and peptides were recovered by HPLC on a C18 column.

TGase 1 [2] = target: T1, TGase 1; experiment: as above; assay type: biochemical; remark: listed apart in the source
[3] = 0.3 nmol involucrin/μmol lipid, 4 h reaction

In the case of `CCCCCCCCCCCCC/C=C/[C@@H](O)[C@H](CO)NC(=O)CCCCCCCCCCCCCCCOCCCCCCCCCCCCCCCCO` [lipid Z, N-[16-(16-hydroxyhexadecyl)oxypalmitoyl]-sphingosine], the “maximum lipid ester formation for Gln 496” value (TGase 1 [1]; [3]) is reported as less than 0.05 mol/mol, the maximum lipid ester formation per mole of Gln residues 107, 118, 122, and 133 (TGase 1 [1]; [3]) is reported as 0.1 to 0.3 mol/mol and the “incorporation rate into involucrin” value (TGase 1 [1]; SLV formulations with 1 mol % lipid Z) is reported as 2.2±0.3 fmol of lipid Z/s. The “involucrin-lipid adduct formation by TGase 1 on SLV membranes” value (TGase 1 [1]; ceramide incorporated in SLV) was “formed saponifiable protein-lipid adducts”, the “amount incorporated into SLV without interference with SLV stability or binding of involucrin and TGase 1” value (TGase 1 [2]) was no more than 25 mol % and the “KM of lipid Z incorporation into involucrin” value (TGase 1 [2]; rate linear up to 25 mol % lipid Z in SLV) was greater than 100 mol %.
